# How the values were obtained:
# Type in all cases: cell-based, human
# [1] = system: X13 O-neg hiPSC line; test: CHIR dose: hematopoietic/erythroid differentiation of agitated hPSC-MC aggregates; conditions: optimal dose of CHIR-99021, day 4
# [2] = system: hES-3 microcarrier aggregates; test: capillary Western blot of Wnt/β-catenin signalling proteins; conditions: hES-3-MC; upon induction with CHIR (15 μM CHIR, 30 ng/ml BMP4, 40 ng/ml Activin A)
# Procedure: Day 7 hES-3-MC aggregates from static or agitation conditions were subjected to differentiation using BMP4 protocol (50 ng/ml BMP4) or optimized CHIR-based protocol (30 ng/ml BMP4, 40 ng/ml Activin A and 15 μM CHIR). Cell lysates before start of differentiation (0 hours) and 24 hours after onset of differentiation were analysed for proteins involved in Wnt/β-catenin signalling (T-BRA, TCF-1 and LEF-1) and BMP4 signalling (SMAD7, SMAD1 and phospho SMAD1/5) using an automated Capillary Western Blot system (Peggy Sue). All samples including GAPDH as a protein loading control were run in parallel. (A) is an image showing digitalized chemiluminescence signals represented as band intensities. Corresponding molecular weight of detected proteins are indicated. […] Graphical representation of chemiluminescence intensity of proteins (expressed as a percentage of GAPDH expression) involved in (B) Wnt/β-catenin signalling and (C) BMP4 signalling. […]
# Capillary Western blot was performed using a fully automated system, Peggy Sue (Proteinsimple, R&D, USA). Proteins were separated, detected and quantified according to manufacturer's protocol (www.proteinsimple.com) based on size separation (12-230 kDa). […] (all from Cell Signaling Technology)[1:50 diluted SMAD7 (Sigma-Aldrich)] followed by horseradish peroxidase conjugated secondary antibody and detected with Luminol/Peroxidase substrate. […]
# [3] = system: O-neg hiPSC line (D5) expanded in agitated microcarrier cultures; test: DoE multifactorial analysis of KDR+ cells, O-neg hiPSC; conditions: CHIR exposure for 24 hours, 4 days post differentiation
# Excerpt: (B) Plot of KDR levels (%) for respective conditions tested (day 4 post differentiation). Conditions 27, 28 and 29 are triplicates of the same condition tested. […] Act=Activin A; CHI=CHIR-99021 for 24 hr, CH2=CHIR-99021 from 24-48 hr; BMP=BMP4. Computed P-values are indicated below the chart.
# These findings were also confirmed using an O-neg hiPSC line (D5) expanded in agitated microcarrier cultures (FIG. 6). […] In summary, from the Design of experiment analysis, it was established that a BMP4 dose of 10 to 50 ng/ml, Activin A dose of 25 to 50 ng/ml and exposure of CHIR for 24 hours at a dose of 6 to 12 μM would be efficient for the generation of KDR+ cells.
# Design of experiments (DoE) using a resolution IV Fractional Factorial Design was performed using the MODDE software (Sartorius Stedim Biotech, Germany) to evaluate initial BMP4, Activin A and CHIR-99021, doses and duration of exposure for their effects on the following response factors: induction of KDR+ cells 4 days post mesoderm induction or total hematopoietic precursors generated 2 weeks post differentiation. […]
# [4] = system: D9 O-neg hiPSC line; test: CHIR dose: hematopoietic/erythroid differentiation of agitated hPSC-MC aggregates; conditions: optimal dose of CHIR-99021, day 4
# [5] = system: IMR90 hiPSC line; test: as above; conditions: optimal dose of CHIR-99021, day 4
# [6] = system: D5 O-neg hiPSC line; test: as above; conditions: optimal dose of CHIR-99021, day 4
# [7] = system: BR7 O-neg hiPSC line; test: as above; conditions: optimal dose of CHIR-99021, day 4
smiles,measurement,setting,value
"Cc1c[nH]c(-c2cnc(NCCNc3ccc(C#N)cn3)nc2-c2ccc(Cl)cc2Cl)n1 [CHIR-99021, 6-[[2-[[4-(2,4-Dichlorophenyl)-5-(5-methyl-1H-imidazol-2-yl)-2-pyrimidinyl]amino]ethyl]amino]-3-pyridinecarbonitrile]",Mesoderm induction % KDR+ PDGFRα−,[1],40.8%
same,"Wnt/β-catenin signalling proteins TCF-1, LEF-1 and T-BRA",[2],detected as early as 24 hours
same,effect of factor on KDR+ cells (DoE),[3],significant factors for increased KDR+ cells
same,Mesoderm induction % KDR+ PDGFRα−,[4],20.9%
same,Mesoderm induction % KDR+ PDGFRα−,[5],14.2%
same,Mesoderm induction % KDR+ PDGFRα−,[6],35.8%
same,Mesoderm induction % KDR+ PDGFRα−,[7],18.6%
